{"source": "patent US9808428B2", "about": "“Compositions and methods for the delivery of therapeutics” (priority 2014, dated 2017)", "system": "HIV-1ADA", "test": "Antiretroviral activity by reverse transcriptase (RT) activity in HIV-1 infected MDM", "format": "cell-based", "conditions": "30-100 μM; MDM challenged with HIV-1ADA >15 days after 8 hours of treatment", "method": "The antiretroviral activity was determined by reverse transcriptase (RT) activity and HIV-1 p24 antigen expression in HIV-1 infected MDM. […] Overall, development of long acting targeted MVC, optionally together with reverse transcriptase, protease and/or integrase inhibitors leads to improved pharmacokinetics of cART and promote improved drug adherence and access."}
{"smiles": "Cc1nnc(C(C)C)n1C1C[C@H]2CC[C@@H](C1)N2CC[C@H](NC(=O)C1CCC(F)(F)CC1)c1ccccc1", "note": "(stereo in doubt) [free MVC, maraviroc]", "values": [{"measurement": "RT activity reductions compared to untreated infected cells", "result": 22, "unit": "%"}]}
